The values that follow come from patent US5109111A, “CRF antagonists” (The Salk Institute for Biological Studies, priority 1990, dated 1992).

The test system of this assay is secretion of ACTH stimulated by oCRF in cultured rat pituitary cells. Nature of the assay: Blocking of oCRF-stimulated ACTH and β-endorphin secretion by cultured rat pituitary cells. The following applies: for inhibition of the secretion of ACTH and β-END-LI: result in words; for potency compared to AHC(9-41) in blocking by 50% the secretion of ACTH: ACTH secretion stimulated by a 1 nM dose of oCRF, AHC(9-41) = reference. The format is cell-based. The method, then:
The effectiveness of synthetic CRF antagonists to block the secretion of ACTH and β-endorphin by cultured rat pituitary cells is measured using the procedure as generally set forth in Vale et al., Endocrinology, 91, 562 (1972).

Square brackets hold non-standard residues; d marks the D form. Peptide text beside a SMILES is read from it. hArg = N=C(N)NCCCC[C@H](N)C(=O)O; dNle = CCCC[C@@H](N)C(=O)O; Nle = CCCC[C@H](N)C(=O)O

`CCCC[C@H](NC(=O)[C@H](CC(C)C)NC(=O)[C@H](CC(C)C)NC(=O)[C@H](CCCNC(=N)N)NC(=O)[C@H](CC(N)=O)NC(=O)[C@H](CC(N)=O)NC(=O)[C@H](C)NC(=O)[C@H](C)NC(=O)[C@H](CCC(N)=O)NC(=O)[C@H](CCC(N)=O)NC(=O)[C@H](CCCCN)NC(=O)[C@@H](NC(=O)[C@H](CCCCN)NC(=O)[C@H](CCC(=O)O)NC(=O)[C@H](CCC(N)=O)NC(=O)[C@H](CCCCN)NC(=O)[C@H](CCC(=O)O)NC(=O)[C@@H](NC(=O)[C@H](CCC(=O)O)NC(=O)[C@@H](NC(=O)[C@H](CCSC)NC(=O)[C@H](CCCCN)NC(=O)[C@H](CCCNC(=N)N)NC(=O)[C@H](CC(C)C)NC(=O)[C@H](CC(C)C)NC(=O)[C@H](CCC(=O)O)NC(=O)[C@@H](N)CC(C)C)C(C)C)C(C)C)[C@@H](C)CC)C(=O)N[C@@H](CC(=O)O)C(=O)N[C@H](C(=O)NCC(N)=O)[C@@H](C)O` [XVIII, [Val^18,20, Ile^26, Nle^37, Gly^40]-sauvagine(11-40)] (H-LELLRKMVEVEKQEKIKQQAANNRLL[Nle]DTG-NH2): the “inhibition of the secretion of ACTH and β-END-LI” value (“inhibition” for short) was “inhibits the secretion of ACTH and β-END-LI”.

For the compound `CCCC[C@H](NC(=O)[C@H](CC(C)C)NC(=O)[C@H](CC(C)C)NC(=O)[C@H](CCCNC(=N)N)NC(=O)[C@H](CC(N)=O)NC(=O)[C@H](CC(N)=O)NC(=O)[C@H](C)NC(=O)[C@H](C)NC(=O)[C@H](CCC(N)=O)NC(=O)[C@H](CCC(N)=O)NC(=O)[C@H](CCCCN)NC(=O)[C@H](CCC(=O)O)NC(=O)[C@H](CCCCN)NC(=O)[C@H](CCC(=O)O)NC(=O)[C@H](CCC(N)=O)NC(=O)[C@H](CCCCNC(=N)N)NC(=O)[C@H](CCC(=O)O)NC(=O)[C@H](C)NC(=O)[C@H](CCC(=O)O)NC(=O)[C@@H](NC(=O)[C@H](CCSC)NC(=O)[C@H](CCCCN)NC(=O)[C@H](CCCNC(=N)N)NC(=O)[C@H](CC(C)C)NC(=O)[C@H](CC(C)C)NC(=O)[C@H](CCC(=O)O)NC(=O)[C@@H](N)CC(C)C)[C@@H](C)CC)C(=O)N[C@@H](CC(=O)O)C(=O)N[C@@H](Cc1ccccc1)C(=O)N[C@H](C(N)=O)[C@@H](C)CC` [XVII, [Ala^20, Har^22, Nle^37, Phe^39]-sauvagine (11-40)] (H-LELLRKMIEAE[hArg]QEKEKQQAANNRLL[Nle]DFI-NH2), the “inhibition” value is “inhibits the secretion of ACTH and β-END-LI”. Turning to `CCCC[C@@H](N)C(=O)N[C@@H](Cc1c[nH]cn1)C(=O)N[C@@H](CC(C)C)C(=O)N[C@@H](CC(C)C)C(=O)N[C@@H](CCCNC(=N)N)C(=O)N[C@@H](CCC(=O)O)C(=O)N[C@@H](CCCC)C(=O)N[C@@H](CC(N)=O)C(=O)N[C@@H](CCC(=O)O)C(=O)N[C@@H](CCCC)C(=O)N[C@@H](CC(=O)O)C(=O)N[C@@H](CCCCN)C(=O)N[C@@H](C)C(=O)N[C@@H](CCC(=O)O)C(=O)N[C@@H](CCC(N)=O)C(=O)N[C@@H](Cc1ccccc1)C(=O)N[C@@H](C)C(=O)N[C@@H](CCC(=O)O)C(=O)N[C@@H](CCC(N)=O)C(=O)N[C@@H](C)C(=O)N[C@@H](C)C(=O)N[C@@H](CC(C)C)C(=O)N[C@@H](CC(N)=O)C(=O)N[C@@H](CCCNC(=N)N)C(=O)N[C@@H](CC(C)C)C(=O)N[C@@H](CC(C)C)C(=O)N[C@@H](CCCC)C(=O)N[C@@H](CCC(=O)O)C(=O)N[C@@H](CCC(=O)O)C(=O)N[C@@H](C)C(N)=O` [XXVII, [D-Nle^12, Nle^18,21,38, Asn^19, Asp^22, Phe^27]-AHC(12-41)] (H-[dNle]HLLRE[Nle]NE[Nle]DKAEQFAEQAALNRLL[Nle]EEA-NH2), the “inhibition” value is “inhibits the secretion of ACTH and β-END-LI”.

For the compound “[D-Val^12, Nle^21,38, Ile^24,27, Nva^41 ]-hCRF(11-41) [XXVIII]”, the “inhibition” value is “inhibits the secretion of ACTH and β-END-LI”. Take `CCCC[C@H](NC(=O)[C@H](CC(C)C)NC(=O)[C@H](CC(C)C)NC(=O)[C@H](CCCNC(=N)N)NC(=O)[C@H](CC(N)=O)NC(=O)[C@H](CC(N)=O)NC(=O)[C@H](C)NC(=O)[C@H](C)NC(=O)[C@H](CCC(N)=O)NC(=O)[C@H](CCC(N)=O)NC(=O)[C@H](CCCCN)NC(=O)[C@H](CCC(=O)O)NC(=O)[C@H](CCCCN)NC(=O)[C@H](CCC(=O)O)NC(=O)[C@H](CCC(N)=O)NC(=O)[C@H](CCCCN)NC(=O)[C@H](C)NC(=O)[C@@H](NC(=O)[C@H](CCC(=O)O)NC(=O)[C@@H](NC(=O)[C@H](CCSC)NC(=O)[C@H](CCCCN)NC(=O)[C@H](CCCNC(=N)N)NC(=O)[C@H](CC(C)C)NC(=O)[C@H](CC(C)C)NC(=O)[C@H](CCC(=O)O)NC(=O)[C@H](CC(C)C)NC(=O)[C@@H](N)CO)[C@@H](C)CC)[C@@H](C)CC)C(=O)N[C@@H](CC(=O)O)C(=O)N[C@H](C(=O)N[C@@H](CCC(N)=O)C(N)=O)[C@@H](C)O` [XVI, [Ala^21, Nle^37, Gln^40]-sauvagine (10-40)] (H-SLELLRKMIEIAKQEKEKQQAANNRLL[Nle]DTQ-NH2): the “inhibition” value was “inhibits the secretion of ACTH and β-END-LI”. Regarding “[4ClD-Phe^12, Nle^18,21,38 ]-AHC(9-41) [XX]”, the “inhibition” value was “inhibits the secretion of ACTH and β-END-LI”.

In the case of “[4FD-Phe^12, CML^14,15,19,27,33,37, CMA^22,32,41, Nle^38 ]-AHC(12-41) [XIX]”, the “inhibition” value was “inhibits the secretion of ACTH and β-END-LI”. On to [D-2Nal^12, Nle^21,38 ]-hCRF(12-41) [X], for which the “potency compared to AHC(9-41) in blocking by 50% the secretion of ACTH” value is recorded as “about 9 times as potent as AHC(9-41)”; the “inhibition” value is “inhibits the secretion of ACTH and β-END-LI”. As to `CCCC[C@H](NC(=O)[C@H](Cc1ccc(O)cc1)NC(=O)[C@H](CCCCN)NC(=O)[C@H](CCCNC(=N)N)NC(=O)[C@H](CC(N)=O)NC(=O)[C@H](CC(C)C)NC(=O)CNC(=O)[C@H](C)NC(=O)[C@H](CCC(N)=O)NC(=O)[C@H](CCC(=O)O)NC(=O)[C@H](CCCNC(=N)N)NC(=O)[C@H](CCC(N)=O)NC(=O)[C@H](CC(N)=O)NC(=O)[C@H](CCC(=O)O)NC(=O)[C@H](CC(N)=O)NC(=O)[C@H](CCCNC(=N)N)NC(=O)[C@H](C)NC(=O)[C@H](CCSC)NC(=O)[C@H](CCC(=O)O)NC(=O)[C@@H](NC(=O)[C@H](CCSC)NC(=O)[C@H](CC(N)=O)NC(=O)[C@H](CCCNC(=N)N)NC(=O)[C@H](CC(C)C)NC(=O)[C@H](CC(C)C)NC(=O)[C@H](Cc1c[nH]cn1)NC(=O)[C@@H](N)Cc1ccccc1)[C@@H](C)CC)C(=O)N[C@@H](CC(=O)O)C(=O)N[C@@H](CCC(=O)O)C(=O)N[C@H](C(N)=O)C(C)C` [VI, [Nle^38]-Carp Urotensin I(12-41)] (H-FHLLRNMIEMARNENQREQAGLNRKY[Nle]DEV-NH2), the “inhibition” value is “inhibits the secretion of ACTH and β-END-LI”. As to [Nle^21,38, Arg^37 ]-hCRF(12-41) [IX], the “potency compared to AHC(9-41) in blocking by 50% the secretion of ACTH” value is “more than 6 times as potent as AHC(9-41)”; the “inhibition” value was “inhibits the secretion of ACTH and β-END-LI”. Regarding “[CML^14,19,27,36, Nle^38 ]-AHC(12-41) [XXVI]”, the “inhibition” value was “inhibits the secretion of ACTH and β-END-LI”.
